The nature of data set [1]: Plasma concentration / pharmacokinetics in mouse (competitive ELISA). In kind it is in vivo. The note with it: 300 μg per mouse, injected peritoneally, parameters in 24 h; for AUC: n = 3; for Cmax / Tmax: serum, ip, 300 ug/animal; for Cmax: n = 3, read-out: Cmax; for Tmax: n = 3, read-out: Tmax. As for the experimental part: Coating antigen: Dilute Tα1 detection antigen stock solution to a final concentration of 2 μg/mL with coating solution, and add it into the wells of ELISA plate for 0.1 mL per well, and incubate at 4° C. for 5 days. Then wash the ELISA plate 3 times with washing buffer, each 0.2 mL/well and 3 min/time. Add 0.2 mL blocking buffer to each well, incubate for 1.5 hours at 37° C., wash plate 2 times by washing buffer, and spin dried.
Sample preparation: Weight sample accurately, dissolve it in saline to a concentration of 1.5 mg/mL. Administrate 0.2 Ml by injection to each mouse peritoneally. Collect blood sample in 3 min, 20 min, 40 min, 1 h, 2 h, 3 h, 6 h, 8 h, 12 h, and 24 h. Collect serum by centrifuge the blood samples for 5 minutes at 10000 rpm, stored at −20° C. in a freezer. o prepare test sample, […] was added by 0.1 mL 1:1500 rabbit anti-Tα1 serum (final concentration is 1:6000), and 0.2 mL CD-1® mouse serum, and […]. Prepare blank control at the same time. Total volume is 0.4 mL. Incubate for 2 hours at 37° C. To prepare standard sample, Tα1 0.1 mL with different concentrations from 0.0004 to 400 μg/mL was added by 0.1 mL 1:1500 rabbit anti-Tα1 serum (final concentration is 1:6000), and 0.2 mL CD-1® mouse serum. Prepare blank control at the same time. Total volume is 0.4 mL. Incubate for 2 hours at 37° C.
Sample Testing Add the prepared test sample and standard sample to ELISA plate, 0.1 mL/well, reacting for 1 hour in 37° C. chamber. Wash the plates 3 times, spin dryed. Add substrate 0.1 mL/well for 10 minutes. Add 2 mol/L H2SO4 0.05 mL to each well to terminate the reaction. Measure the OD value at 450 nm. Plot the standard curve with the concentration of Tα1 standard sample as abscissa and OD value as vertical coordinate. Calculate the content of test sample according to this standard curve.
(In general: In an ELISA, binding on a coated surface is turned into a signal by an enzyme label.)

The test system of data set [2] is T lymphocyte (spleen cell). The data set is described as follows: T lymphocyte proliferation stimulated by Con A (3H-TdR incorporation). The settings on record: for 3H-TdR incorporation (cpm, x ± SD): Con A 0.5 μg/mL, 72 hours, n = 4; for Enhancement percentage: versus Con A alone. In kind it is cell-based, mouse. As for the experimental part: Sacrifice mouse by draining artery blood, remove spleen in sterile condition, and make it to spleen cell suspension. After red blood cell lysis, wash for 3 times, and stain with Trypan Blue to count the living cells. The amount of living cells should be more than 95%. Dilute the cell concentration to 5×10^6 cell/mL by adding RPMI-1640 culture with 10% bovine serum. Add spleen cell suspension to a sterilized 96-well plate for 100 μL per well. The total amount is 200 μL per well (including 50 μL Con A and 50 μL medicament). Each sample concentration is repeated fro 3-4 wells. Incubate the plate in a 5% CO2 chamber for 72 hours, add 10 μci/mL ^3H-TdR 20 μL per well 16 hours before termination of the incubation, giving rise to a final concentration of 1.0 μci (37.0 KBq)/mL. Collect cells on filter membrane by using Herveste 96 cell harvester, dried in 80° C. oven for 20 minutes or dried in air. Put the dried filter membrane into 1450-423 microBeta sample bag, add scintillation liquid, and measure radioactivity (cpm) in Perkin Elmer MicroBeta Trilux 1450 Scintillation Counter.

Another data set has as its system spleen cell. Description: Interferon-γ production of spleen cells stimulated by Con A (double antibody sandwich ELISA). The data set is classed as cell-based. The note with it: for Concentration of IFN-γ: Con A 0.5 μg/mL, 24 hours, n = 3; for Enhancement percentage: versus Con A alone. As for the experimental part: Prepare spleen cell suspension in sterile condition. Adjust cell concentration to 5×10^6 cell/mL by adding RPMI-1640 culture with 20% bovine serum. Add 0.5 mL cell suspension, 0.25 mL Con A (final concentration is 0.5 μg/mL) and 0.25 mL samples with different concentrations in 24-well plate; and add RPMI-1640 culture in control wells. Incubate the plates in a 5% CO2 chamber at 37° C. for 24 hours. Centrifuge and collect supernatant, test the content of IFN-γ in supernatant by double antibody sandwich ELISA. The protocol is according to the instruction on ELISA kit.

Data set [3] can be described thus: Half-life in liver homogenate (HPLC). The data set is classed as in vitro ADME. The note with it: 37° C., sample 0.4 mg/mL or 0.8 mg/mL, read-out: t1/2 in liver homogenate (converted). On the procedure:
Experimental method: Prepare 0.4 mg/mL or 0.8 mg/mL sample aqueous solution in centrifuge tube, adding 50 μL liver homogenate. Then incubate for different time in 37° C. water bath. Terminate the reaction and precipitate liver homogenate protein by heating the mixture in boiling water for 5 minutes. Centrifuge it (10000 rpm) for 10 minutes. Analyze the supernatant by HPLC. The data was statistically analyzed by Origin Prof. 5.0.
HPLC: Column temperature: 25° C.; Flow rate 1.0 mL/min; Detection wavelength: 200 nm; Mobile phase A: 0.1% TFA/H2O; Mobile phase B: 0.1% TFA/70% CH3CN.

As a reminder, the AUC is the area under the concentration-time curve, a measure of exposure. Higher therefore signals high exposure. The term Cmax denotes the maximum level reached in the sampled fluid or tissue. What is called Tmax is the time at which the peak concentration occurs. “Ac-SDAAVDTSSEITTKDLKEKKEVVEEAEN-OH [Tα1, reference compound]” came in with an AUC in data set [1] of 9.22 µg·h/mL. For the same substance, in data set [1], the Cmax worked out at 10100 ng/mL. In addition, in data set [1], the Tmax was found to be 20 min. For the same substance, the “3H-TdR incorporation (cpm, x ± SD)” value in data set [2] (Table 2-1, sample 10 μg/mL) worked out at 17871 ± 4635 cpm; in data set [2] (Table 2-1, sample 50 μg/mL), 17007 ± 1526 cpm; in data set [2] (Table 2-1, sample 100 μg/mL) it was 14624 ± 3253 cpm; in data set [2] (Table 2-2, sample 10 μg/mL), 18315 ± 2194 cpm; in data set [2] (Table 2-2, sample 50 μg/mL) it was 17007 ± 1526 cpm; in data set [2] (Table 2-2, sample 100 μg/mL) it was 14383 ± 3225 cpm. Besides, the Enhancement percentage entry in data set [2] (Table 2-1, sample 10 μg/mL) is on record as “+32.5%”; in data set [2] (Table 2-1, sample 50 μg/mL), “+26.1%”; in data set [2] (Table 2-1, sample 100 μg/mL) it was “+6.6%”; in data set [2] (Table 2-2, sample 10 μg/mL), “+57.3%”; in data set [2] (Table 2-2, sample 50 μg/mL), “+46.1%”; in data set [2] (Table 2-2, sample 100 μg/mL), “+23.5%”. Besides, the “Enhancement percentage” value with spleen cell (Table 1-1, sample 1 μg/mL) is “+92.8%”; in the data set with spleen cell (Table 1-1, sample 10 μg/mL) it was “+101.4%”; in the data set with spleen cell (Table 1-1, sample 100 μg/mL) it was “+34.0%”; in the data set with spleen cell (Table 1-3, sample 1 μg/mL) it was “+18.2%”; in the data set on spleen cell (Table 1-3, sample 10 μg/mL), “+27.4%”; in the data set with spleen cell (Table 1-3, sample 100 μg/mL) it was “+42.8%”. For the same substance, the “Concentration of IFN-γ” value in the data set on spleen cell (Table 1-1, sample 1 μg/mL) turned out to be 1449.3 ± 334.3 pg/mL; in the data set on spleen cell (Table 1-1, sample 10 μg/mL), 1514.0 ± 102.1 pg/mL; in the data set on spleen cell (Table 1-1, sample 100 μg/mL), 1007.2 ± 31.3 pg/mL; in the data set with spleen cell (Table 1-3, sample 1 μg/mL), 3609.6 ± 167.8 pg/mL; with spleen cell (Table 1-3, sample 10 μg/mL) it was 3891.5 ± 106.1 pg/mL; in the data set on spleen cell (Table 1-3, sample 100 μg/mL) it was 4361.3 ± 87.8 pg/mL. For the same substance, the half-life in data set [3] is 252 min.

“Ac-SDAAVDTSSEITTKDLCEKKEVVEEAEN-OH [BMJBT005]” returned an AUC in data set [1] of 6.11 µg·h/mL. The Cmax in data set [1] was 3650 ng/mL. Moreover, the Tmax in data set [1] came to 20 min. For the same substance, the “3H-TdR incorporation (cpm, x ± SD)” value is reported as 22237 ± 5551 cpm in data set [2] (Table 2-1, sample 10 μg/mL); 22413 ± 1436 cpm in data set [2] (Table 2-1, sample 50 μg/mL); 17551 ± 2491 cpm in data set [2] (Table 2-1, sample 100 μg/mL). Further, the Enhancement percentage result is reported as “+64.9%” in data set [2] (Table 2-1, sample 10 μg/mL); “+66.2%” in data set [2] (Table 2-1, sample 50 μg/mL); “+30.1%” in data set [2] (Table 2-1, sample 100 μg/mL); “+142.4%” in the data set on spleen cell (Table 1-1, sample 1 μg/mL); “+127.0%” with spleen cell (Table 1-1, sample 10 μg/mL); “+20.6%” in the data set with spleen cell (Table 1-1, sample 100 μg/mL). Also, the “Concentration of IFN-γ” value with spleen cell (Table 1-1, sample 1 μg/mL) is listed as 1822.2 ± 24.3 pg/mL; in the data set with spleen cell (Table 1-1, sample 10 μg/mL) it was 1706.5 ± 139.3 pg/mL; with spleen cell (Table 1-1, sample 100 μg/mL), 906.9 ± 10.7 pg/mL. For the same substance, the half-life in data set [3] is 168 min.

On to “Ac-SDAACDTSSEITTKDLKEKKEVVEEAEN-OH [BMJBT001]”, for which the AUC in data set [1] turned out to be 3.09 µg·h/mL. The Cmax in data set [1] was found to be 448 ng/mL. Besides, the Tmax in data set [1] stood at 20 min. In addition, the “3H-TdR incorporation (cpm, x ± SD)” value in data set [2] (Table 2-2, sample 10 μg/mL) is on record as 19289 ± 4456 cpm; in data set [2] (Table 2-2, sample 50 μg/mL) it was 19972 ± 3287 cpm; in data set [2] (Table 2-2, sample 100 μg/mL) it was 21119 ± 5339 cpm. For the same substance, the Enhancement percentage entry in data set [2] (Table 2-2, sample 10 μg/mL) was “+65.7%”; in data set [2] (Table 2-2, sample 50 μg/mL) it was “+71.6%”; in data set [2] (Table 2-2, sample 100 μg/mL), “+81.4%”; in the data set on spleen cell (Table 1-2, sample 1 μg/mL) it was −7.9%; with spleen cell (Table 1-2, sample 10 μg/mL) it was “+10.0%”; in the data set with spleen cell (Table 1-2, sample 100 μg/mL), “+11.0%”. The “Concentration of IFN-γ” value in the data set with spleen cell (Table 1-2, sample 1 μg/mL) was determined as 3000.5 ± 56.1 pg/mL; with spleen cell (Table 1-2, sample 10 μg/mL), 3584.2 ± 31.6 pg/mL; in the data set with spleen cell (Table 1-2, sample 100 μg/mL), 3618.5 ± 93.8 pg/mL. The half-life in data set [3] was 228 min.

These data come from patent publication US8080522B2, “Polyethlene glycol modifications of thymosin alpha-1” (Institute of Pharmacology and Toxicology Academy of …, priority 2005, dated 2011).
